In brackets after ≈: the same amount, converted by molar mass.
How the values were obtained:
S. faecalis (MTCC- 0459) = test: Broth microdilution MIC/MBC, S. faecalis; type: cell-based, Streptococcus faecalis; settings: for MIC: Enterococcus faecalis, MTCC0459; for antibacterial potency relative to penicillin G (times greater): by MIC, organism not named in the sentence (values match S. faecalis)
E. coli MurA = E. coli MurA (Escherichia coli, UniProt P0A749); test: MurA enzyme inhibition assay; type: biochemical
[1] = system: Saccharomyces cerevisiae (ATCC-9763); test: Broth microdilution MIC/MFC, S. cerevisiae; type: cell-based; settings: ATCC9763
[2] = system: Bacillus pumilis (MTCC- 2296); test: Broth microdilution MIC/MBC, B. pumilis; type: cell-based; settings: for potency relative to penicillin G (times greater): B. pumilis, by MIC; for MIC: Bacillus, MTCC2296
[3] = system: Candida albicans (ATCC-10231); test: Broth microdilution MIC/MFC, C. albicans; type: cell-based; settings: ATCC10231
[4] = system: Enterobacter cloacae (ATCC- 23355); type: cell-based; settings: E. cloacae
[5] = system: hemolytic activity of E. coli; test: Hemolysin inhibition assay, E. coli; type: cell-based; settings: at 75%MBC, control 100% hemolysis
[6] = system: hemolytic activity of S. faecalis; test: Hemolysin inhibition assay, S. faecalis; type: cell-based; settings: at 75%MBC, control 100% hemolysis
E. coli (ATCC- 25955) = test: microbe, parasite or virus in culture; type: cell-based; settings: Escherichia coli, ATCC25955

E. coli MurA, sequence (P0A749 whole entry): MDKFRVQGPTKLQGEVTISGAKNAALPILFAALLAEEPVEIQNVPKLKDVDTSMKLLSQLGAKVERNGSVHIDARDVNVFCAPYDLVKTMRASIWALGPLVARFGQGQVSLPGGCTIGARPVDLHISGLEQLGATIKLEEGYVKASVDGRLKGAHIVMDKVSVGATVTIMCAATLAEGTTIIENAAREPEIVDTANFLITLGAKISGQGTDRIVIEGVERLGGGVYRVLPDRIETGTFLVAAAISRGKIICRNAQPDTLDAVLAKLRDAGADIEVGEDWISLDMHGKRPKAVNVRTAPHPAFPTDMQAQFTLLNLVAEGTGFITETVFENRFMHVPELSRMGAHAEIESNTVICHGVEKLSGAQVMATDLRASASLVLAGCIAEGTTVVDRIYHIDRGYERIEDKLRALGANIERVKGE

| MIC (S. faecalis (MTCC- 0459)) [µg/mL] | MIC [2] [µg/mL] | Structure (SMILES) | potency relative to penicillin G (times greater) [2] [fold] | other results |
| --- | --- | --- | --- | --- |
| 7.81 (≈ 13.5 µM) | – | Cc1ccc(N=Nc2c(N)nn3c(-c4ccc(Cl)cc4Cl)cc(-c4ccc(OCc5ccccc5)cc4)nc23)cc1 [Compound 4e, 5-(4-(Benzyloxy)phenyl)-7-(2,4-dichlorophenyl)-3-(p-tolyldiazenyl)pyrazolo[1,5-a]pyrimidin-2-amine] | – | antibacterial potency relative to penicillin G (times greater) (S. faecalis (MTCC- 0459)): 4 times |
| – | – | C[C@@H]1O[C@@H]1P(=O)(O)O [fosfomycin, Fosfomycin] | – | IC50 (E. coli MurA): 69.8 µM |
| 15.6 (≈ 31.2 µM) | 3.91 (≈ 7.81 µM) | Cc1ccc(N=Nc2c(N)nn3c(-c4ccco4)cc(-c4ccc(OCc5ccccc5)cc4)nc23)cc1 [Compound 4h, 5-(4-(Benzyloxy)phenyl)-7-(furan-2-yl)-3-(p-tolyldiazenyl)pyrazolo[1,5-a]pyrimidin-2-amine] | 16 | MIC [1]: 15.6 µg/mL (≈ 31.2 µM) |
| – | – | Nc1nn2c(-c3ccc(Cl)cc3Cl)cc(-c3ccc(OCc4ccccc4)cc3)nc2c1N=Nc1ccc(F)cc1 [Compound 4d, 5-(4-(Benzyloxy)phenyl)-7-(2,4-dichlorophenyl)-3-((4-fluorophenyl)diazenyl)pyrazolo[1,5-a]pyrimidin-2-amine] | – | MIC [1]: 15.6 µg/mL (≈ 26.7 µM) |
| 31.5 (≈ 94.2 µM) | 62.5 (≈ 187 µM) | CC1(C)S[C@@H]2[C@H](NC(=O)Cc3ccccc3)C(=O)N2[C@H]1C(=O)O [Penicillin G, penicillin G, reference compound] | – | – |
| 1.95 (≈ 3.87 µM) | 3.91 (≈ 7.75 µM) | Nc1nn2c(-c3ccco3)cc(-c3ccc(OCc4ccccc4)cc3)nc2c1N=Nc1ccc(F)cc1 [Compound 4g, 5-(4-(Benzyloxy)phenyl)-3-((4-fluorophenyl)diazenyl)-7-(furan-2-yl)pyrazolo[1,5-a]pyrimidin-2-amine] | 16 | antibacterial potency relative to penicillin G (times greater) (S. faecalis (MTCC- 0459)): 16 times |
| – | 15.6 (≈ 30.2 µM) | COc1ccc(N=Nc2c(N)nn3c(-c4ccco4)cc(-c4ccc(OCc5ccccc5)cc4)nc23)cc1 [Compound 4i, 5-(4-(Benzyloxy)phenyl)-7-(furan-2-yl)-3-((4-methoxyphenyl)diazenyl)pyrazolo[1,5-a]pyrimidin-2-amine] | 4 | MIC [3]: 15.6 µg/mL (≈ 30.2 µM); MBC/MIC [4]: 8 |
| 15.6 (≈ 28.9 µM) | 7.81 (≈ 14.4 µM) | COc1ccc(N=Nc2c(N)nn3c(-c4ccc(C)cc4)cc(-c4ccc(OCc5ccccc5)cc4)nc23)cc1 [Compound 4c, 5-(4-(Benzyloxy)phenyl)-3-((4-methoxyphenyl)diazenyl)-7-(p-tolyl)pyrazolo[1,5-a]pyrimidin-2-amine] | 8 | hemolysis [5]: 7.1%; hemolysis [6]: 3.3%; MIC (E. coli (ATCC- 25955)): 1.95 µg/mL (≈ 3.61 µM) |
| 15.6 (≈ 26.2 µM) | 7.81 (≈ 13.1 µM) | COc1ccc(N=Nc2c(N)nn3c(-c4ccc(Cl)cc4Cl)cc(-c4ccc(OCc5ccccc5)cc4)nc23)cc1 [Compound 4f, 5-(4-(Benzyloxy)phenyl)-7-(2,4-dichlorophenyl)-3-((4-methoxyphenyl)diazenyl)pyrazolo[1,5-a]pyrimidin-2-amine] | 8 | – |
| 15.6 (≈ 29.7 µM) | 15.6 (≈ 29.7 µM) | Cc1ccc(N=Nc2c(N)nn3c(-c4ccc(C)cc4)cc(-c4ccc(OCc5ccccc5)cc4)nc23)cc1 [Compound 4b, 5-(4-(Benzyloxy)phenyl)-7-(p-tolyl)-3-(p-tolyldiazenyl)pyrazolo[1,5-a]pyrimidin-2-amine] | 4 | MIC (E. coli (ATCC- 25955)): 1.95 µg/mL (≈ 3.72 µM) |
| 3.91 (≈ 7.4 µM) | – | Cc1ccc(-c2cc(-c3ccc(OCc4ccccc4)cc3)nc3c(N=Nc4ccc(F)cc4)c(N)nn23)cc1 [Compound 4a, 5-(4-(Benzyloxy)phenyl)-3-((4-fluorophenyl)diazenyl)-7-(p-tolyl)pyrazolo[1,5-a]pyrimidin-2-amine] | – | antibacterial potency relative to penicillin G (times greater) (S. faecalis (MTCC- 0459)): 8 times |
